According to the supplement of paper PMC10307832:

compound: NC(=O)c1ccc(N(C(N)=O)c2c(F)cccc2F)nc1-c1ccc(F)cc1F [VX-702] + Cc1nc(NC(=O)N2CCC[C@H]2C(N)=O)sc1-c1ccnc(C(C)(C)C(F)(F)F)c1 [Alpelisib] (partner 2 µM); experiment: relative viability (nuclei count vs DMSO), 5 days (fraction); higher = more cells survive; details: first compound 0.2 µM
Summary of the method: (§1)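 Relative viability equals treated-well nuclei counts divided by vehicle-well nuclei counts. Counts came from 4× images of lung cancer cell lines grown in 1536-well plates for 5 days after pin-tool dosing on the day after seeding. Dosing used one drug alone or a fixed anchor-drug dose plus five library-drug doses (not always all listed) in √10 steps, and values are medians of duplicate plates.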

Cell Line | relative viability
CAL-12T | 1.27
NCI-H1944 | 0.775
NCI-H2085 | 0.838
IA-LM | 0.725
NCI-H2228 | 0.64
NCI-H441 | 0.537
EMC-BAC-2 | 0.671
NCI-H2170 | 0.61
NCI-H1703 | 0.376
UMC-11 | 0.973
LCLC-103H | 0.949
NCI-H596 | 0.436
HCC-827 | 1.04
COR-L 105 | 0.947
NCI-H1299 | 1.1
NCI-H2126 | 0.708
A549 | 0.666
HCC-44 | 0.866
NCI-H1792 | 0.66
Calu-6 | 1.07
COR-L23 | 0.831
SK-LU-1 | 0.972
SW 1573 | 0.64
NCI-H1563 | 0.997
NCI-H661 | 0.364
NCI-H2009 | 1.22
NCI-H520 | 0.788
EBC-1 | 0.835
NCI-H2023 | 0.606
SK-MES-1 | 0.822

same assay, conditions: first compound 0.6325 µM

Cell Line | relative viability
ABC-1 | 0.901
CAL-12T | 1.16
NCI-H1944 | 0.818
NCI-H2085 | 0.959
IA-LM | 0.782
NCI-H2228 | 0.753
NCI-H441 | 0.727
EMC-BAC-2 | 0.723
NCI-H2170 | 0.757
NCI-H1703 | 0.215
UMC-11 | 0.955
NCI-H650 | 1.15
LCLC-103H | 0.977
NCI-H596 | 0.509
HCC-827 | 0.884
COR-L 105 | 0.868

Cell Line | relative viability
NCI-H1299 | 1.21
NCI-H2126 | 0.718
A549 | 0.692
HCC-44 | 0.588
NCI-H1792 | 0.637
Calu-6 | 1
COR-L23 | 0.841
SK-LU-1 | 1.04
SW 1573 | 0.759
NCI-H1563 | 0.835
NCI-H661 | 0.338
NCI-H2009 | 1.24
NCI-H520 | 0.796
EBC-1 | 0.687
NCI-H2023 | 0.483
SK-MES-1 | 0.853

same assay, conditions: first compound 2 µM

Cell Line | relative viability
ABC-1 | 1
CAL-12T | 1.24
NCI-H1944 | 0.605
NCI-H2085 | 0.955
IA-LM | 0.748
NCI-H2228 | 0.856
NCI-H441 | 0.759
EMC-BAC-2 | 0.852
NCI-H2170 | 0.869
NCI-H1703 | 0.334
UMC-11 | 1.29
NCI-H650 | 1.34
LCLC-103H | 0.9
NCI-H596 | 0.426
HCC-827 | 0.684
COR-L 105 | 1.24

Cell Line | relative viability
NCI-H1299 | 1.15
NCI-H2126 | 0.698
A549 | 0.857
HCC-44 | 0.8
NCI-H1792 | 0.479
Calu-6 | 1.2
COR-L23 | 0.986
SK-LU-1 | 1.34
SW 1573 | 0.652
NCI-H1563 | 0.876
NCI-H661 | 0.997
NCI-H2009 | 1.35
NCI-H520 | 1.06
EBC-1 | 0.892
NCI-H2023 | 0.561
SK-MES-1 | 0.918

compound: CC(C)(C)c1nc(-c2cccc(NS(=O)(=O)c3c(F)cccc3F)c2F)c(-c2ccnc(N)n2)s1 [Dabrafenib] + COc1cc2c(Oc3ccc(NC(=O)C4(C(=O)Nc5ccc(F)cc5)CC4)cc3F)ccnc2cc1OCCCN1CCOCC1 [Foretinib] (partner 0.25 µM); experiment: as above; details: first compound 0.003 µM
Summary of the method: as §1

Cell Line | relative viability
ABC-1 | 1.03
CAL-12T | 1.07
NCI-H1944 | 0.832
NCI-H2085 | 0.984
IA-LM | 1.13
EMC-BAC-2 | 1.01
NCI-H2170 | 1.03
NCI-H1703 | 0.354
UMC-11 | 1.13
LCLC-103H | 0.762
HCC-827 | 1.11
COR-L 105 | 0.971
NCI-H1299 | 1.05
NCI-H2126 | 1.15
A549 | 0.979
NCI-H1650 | 1.03
ChaGo-K-1 | 1.05
Calu-6 | 0.878
COR-L23 | 0.947
SW 1573 | 0.757
NCI-H2342 | 1.04
NCI-H1563 | 0.856
NCI-H661 | 1.01
NCI-H2009 | 1.21
NCI-H520 | 0.909
EBC-1 | 0.102
NCI-H2023 | 0.866
SK-MES-1 | 0.653

same assay, conditions: first compound 0.009487 µM

Cell Line | relative viability
ABC-1 | 1.09
CAL-12T | 1.09
NCI-H1944 | 0.887
NCI-H2085 | 0.975
IA-LM | 1.08
NCI-H2228 | 0.95
